In the supplement of paper PMC11061612:

What was measured:
Assay in all cases: Bliss excess, mean over the matrix (fraction); higher = more synergy
CHP-212 (Neuroblastoma) = tested on: CHP-212 (Neuroblastoma)
Summary of the method: (§1)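 After 24 hours at 37°C and 5% CO2 in 1536-well plates, cells in DMEM/F12 or RPMI plus 10% FBS received two-drug dose matrices for 72 hours. Viability came from CellTiter-Glo 2.0 luminescence and was scaled as inhibition, anchored at 0 by vehicle wells and at 1 by blank wells. Combination Emax is taken as the second-highest inhibition in the matrix, and Bliss excess as the observed combination effect less EA + EB − EA·EB, with EA and EB the single-agent effects.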

[1] = tested on: COLO-678 (Colorectal Carcinoma)
Summary of the method: as §1

TC-71 (Ewing's Sarcoma) = tested on: TC-71 (Ewing's Sarcoma)
Summary of the method: as §1

[2] = tested on: DiFi (Colorectal Carcinoma)
Summary of the method: as §1

[3] = tested on: HDQ-P1 (Breast Carcinoma)
Summary of the method: as §1

WM-115 (Melanoma) = tested on: WM-115 (Melanoma)
Summary of the method: as §1

[4] = tested on: MFM-223 (Breast Carcinoma)
Summary of the method: as §1

[5] = tested on: TOV-112D (Ovarian Carcinoma)
Summary of the method: as §1

[6] = tested on: EVSA-T (Breast Carcinoma)
Summary of the method: as §1

U251 (Low Grade Glioma) = tested on: U251 (Low Grade Glioma)
Summary of the method: as §1

[7] = tested on: CAMA-1 (Breast Carcinoma)
Summary of the method: as §1

[8] = tested on: KM12 (Colorectal Carcinoma)
Summary of the method: as §1

[9] = tested on: NCI-H1792 (Lung Adenocarcinoma)
Summary of the method: as §1

[10] = tested on: MKN28 (Gastric Carcinoma)
Summary of the method: as §1

[11] = tested on: L-540 (Hodgkin's Lymphoma)
Summary of the method: as §1

[12] = tested on: NCI-H847 (Small Cell Lung Carcinoma)
Summary of the method: as §1

[13] = tested on: KYSE-180 (Esophageal Squamous Cell Carcinoma)
Summary of the method: as §1

[14] = tested on: SW837 (Colorectal Carcinoma)
Summary of the method: as §1

[15] = tested on: TE-6 (Esophageal Squamous Cell Carcinoma)
Summary of the method: as §1

MEL-JUSO (Melanoma) = tested on: MEL-JUSO (Melanoma)
Summary of the method: as §1

Compound | Bliss excess (CHP-212 (Neuroblastoma)) | Bliss excess [1] | Bliss excess (TC-71 (Ewing's Sarcoma)) | Bliss excess [2] | Bliss excess [3] | Bliss excess (WM-115 (Melanoma)) | Bliss excess [4] | Bliss excess [5] | Bliss excess [6] | Bliss excess (U251 (Low Grade Glioma)) | Bliss excess [7] | Bliss excess [8] | Bliss excess [9] | Bliss excess [10] | Bliss excess [11] | Bliss excess [12] | Bliss excess [13] | Bliss excess [14] | Bliss excess [15] | Bliss excess (MEL-JUSO (Melanoma))
COc1cccc(OCCCN)c1-c1cc(Nc2cnc(C#N)cn2)n[nH]1 [Prexasertib] + O=C(c1cc(Cc2n[nH]c(=O)c3ccccc23)ccc1F)N1CCN(C(=O)C2CC2)CC1 [Olaparib] (first compound max 1 µM, 7x7, partner max 10 µM) | -0.0592 | -0.0157 | -0.017 | -0.0265 | 0.0002 | -0.0557 | -0.124 | 0.0277 | -0.0312 | 0.0369 | -0.188 | -0.0192 | -0.0161 | -0.133 | -0.0351 | -0.0027 | -0.0371 | -0.0854 | -0.0452 | -0.0741
CC1(C)CCC(CN2CCN(c3ccc(C(=O)NS(=O)(=O)c4ccc(NCC5CCOCC5)c([N+](=O)[O-])c4)c(Oc4cnc5[nH]ccc5c4)c3)CC2)=C(c2ccc(Cl)cc2)C1 [Venetoclax] + Cc1cc2ncnn2cc1Nc1ncc2c(n1)n(C1CCOCC1)c(=O)n2C [AZD7648] (first compound max 1 µM, 7x7, partner max 10 µM) | -0.0624 | -0.0531 | -0.0333 | -0.0389 | -0.0288 | -0.038 | -0.0672 | -0.0253 | -0.0394 | -0.0719 | -0.0266 | -0.0129 | -0.0591 | -0.011 | 0.0588 | 0.0002 | 0.0053 | -0.0563 | -0.0041 | -0.0235
CN(C)CCCOc1ccc(-c2ccc3ncc4c(c3c2)n(C2CCOCC2)c(=O)n4C)cn1 [AZD0156] + CCN(CCO)CCCOc1ccc2c(Nc3cc(CC(=O)Nc4cccc(F)c4)[nH]n3)ncnc2c1 [AZD2811] (first compound max 1 µM, 7x7, partner max 1 µM) | -0.0254 | -0.0179 | 0.0495 | -0.0363 | -0.0634 | -0.0368 | 0.0113 | -0.0025 | 0.0104 | 0.0131 | -0.0318 | -0.0163 | -0.0032 | -0.0295 | 0.0074 | -0.0122 | -0.0153 | -0.0263 | 0.0127 | -0.0039
CCc1c2c(nc3ccc(O)cc13)-c1cc3c(c(=O)n1C2)COC(=O)[C@]3(O)CC [SN-38] + CN(C)CCCOc1ccc(-c2ccc3ncc4c(c3c2)n(C2CCOCC2)c(=O)n4C)cn1 [AZD0156] (first compound max 0.3 µM, 7x7, partner max 1 µM) | 0.0143 | -0.0558 | 0.0736 | 0.0735 | 0.0065 | -0.0408 | -0.0144 | 0.0401 | -0.0354 | -0.0239 | -0.0477 | 0.0711 | 0.0517 | 0.0117 | 0.0206 | -0.023 | 0.0421 | -0.0613 | -0.0254 | 0.0265
COc1cccc(OCCCN)c1-c1cc(Nc2cnc(C#N)cn2)n[nH]1 [Prexasertib] + Cc1cc2ncnn2cc1Nc1ncc2c(n1)n(C1CCOCC1)c(=O)n2C [AZD7648] (first compound max 1 µM, 7x7, partner max 10 µM) | -0.0467 | -0.0384 | -0.0419 | -0.0046 | -0.0236 | -0.0102 | 0.0065 | -0.0241 | 0.017 | -0.0114 | -0.0206 | -0.0399 | -0.0227 | -0.0172 | -0.0223 | 0.0131 | -0.0431 | -0.0143 | 0.001 | -0.0383
CN(C)CCCOc1ccc(-c2ccc3ncc4c(c3c2)n(C2CCOCC2)c(=O)n4C)cn1 [AZD0156] + C=CCn1c(=O)c2cnc(Nc3ccc(N4CCN(C)CC4)cc3)nc2n1-c1cccc(C(C)(C)O)n1 [AZD1775] (first compound max 1 µM, partner max 1 µM) | -0.0165 | -0.0197 | 0.0685 | -0.0013 | 0.0118 | -0.0383 | -0.0282 | 0.0039 | -0.0618 | 0.005 | -0.0726 | -0.0223 | -0.0041 | -0.0875 | 0.0604 | -0.0114 | -0.0451 | -0.0431 | -0.045 | 0.0243
CCc1c2c(nc3ccc(O)cc13)-c1cc3c(c(=O)n1C2)COC(=O)[C@]3(O)CC [SN-38] + O=C(c1cc(Cc2n[nH]c(=O)c3ccccc23)ccc1F)N1CCN(C(=O)C2CC2)CC1 [Olaparib] (first compound max 0.3 µM, 7x7, partner max 10 µM) |  | 0.0487 |  | 0.0423 | 0.025 | 0.0847 | 0.0054 | 0.0453 | 0.0738 |  | 0.0287 | -0.0102 | 0.0361 | 0.0385 | 0.0196 | 0.0304 | 0.0458 | 0.0302 |  | 
C[C@@H](c1ccc2nccn2c1)n1nnc2ncc(-c3cnn(C)c3)nc21 [Savolitinib] + Cc1c2c(nn1C)CSCc1cc(n(C)n1)CSc1cc(c3ccccc3c1)OCCCc1c(C(=O)O)n(C)c3c-2c(Cl)ccc13 [AZD5991] (first compound max 1 µM, 7x7, partner max 1 µM) | -0.0437 | -0.0899 | -0.021 | -0.0321 | -0.0456 | -0.037 | -0.0228 | -0.0242 | -0.0233 | -0.0691 | -0.0136 | -0.0256 | -0.0279 | -0.045 | -0.0054 |  | -0.0117 | -0.0644 | -0.0541 | -0.0269
COc1nnc2ccc(N3CCC(c4ccc(OCCN5CCN(C)C(=O)[C@H]5C)cc4)CC3)nn12 [AZD5153] + CC1(C)CCC(CN2CCN(c3ccc(C(=O)NS(=O)(=O)c4ccc(NCC5CCOCC5)c([N+](=O)[O-])c4)c(Oc4cnc5[nH]ccc5c4)c3)CC2)=C(c2ccc(Cl)cc2)C1 [Venetoclax] (first compound max 1 µM, 7x7, partner max 1 µM) | -0.085 | -0.121 | -0.0443 | 0.0054 | -0.0307 | -0.0717 | -0.0295 | -0.0474 | -0.0008 | -0.0872 | -0.0564 | -0.0571 | -0.0215 | -0.0251 | -0.0012 |  | -0.0193 | -0.0514 | -0.103 | -0.0547
Cc1c2c(nn1C)CSCc1cc(n(C)n1)CSc1cc(c3ccccc3c1)OCCCc1c(C(=O)O)n(C)c3c-2c(Cl)ccc13 [AZD5991] + CC1(C)CCC(CN2CCN(c3ccc(C(=O)NS(=O)(=O)c4ccc(NCC5CCOCC5)c([N+](=O)[O-])c4)c(Oc4cnc5[nH]ccc5c4)c3)CC2)=C(c2ccc(Cl)cc2)C1 [Venetoclax] (first compound max 1 µM, 7x7, partner max 1 µM) | -0.0416 |  | 0.0733 | 0.0436 | -0.0129 | -0.0496 | -0.0041 | 0.0582 | 0.0125 | -0.0068 | 0.0985 | 0.0015 | 0.0248 | -0.0332 | 0.0902 | 0.253 | 0.0103 | -0.0169 | -0.157 | -0.0297
CS(=O)(=O)CCNCc1ccc(-c2ccc3ncnc(Nc4ccc(OCc5cccc(F)c5)c(Cl)c4)c3c2)o1 [Lapatinib] + C[C@@H](Oc1cc(-c2cnn(C3CCNCC3)c2)cnc1N)c1c(Cl)ccc(F)c1Cl [Crizotinib] (first compound max 10 µM, 7x7, partner max 10 µM) | -0.0741 | -0.0488 | -0.0079 | 0.0187 | -0.0144 | -0.0237 | 0.0148 | 0.0028 | -0.0359 | -0.0586 | -0.0178 | -0.0327 | -0.0342 | -0.0477 | -0.0731 |  | 0.0476 | -0.0345 | -0.0111 | -0.034
NC1(C(=O)N[C@@H](CCO)c2ccc(Cl)cc2)CCN(c2ncnc3[nH]ccc23)CC1 [Capivasertib] + Cn1cnc2c(F)c(Nc3ccc(Br)cc3Cl)c(C(=O)NOCCO)cc21 [Selumetinib] (first compound max 10 µM, 7x7, partner max 10 µM) | -0.0277 | -0.0398 | 0.0203 | 0.0049 | -0.0046 | 0.071 | 0.0276 | 0.0272 | -0.0157 | 0.0099 | 0.0187 | 0.016 | 0.0276 | -0.05 | -0.0345 |  | -0.0307 | -0.0357 | 0.0032 | 0.0315
NC1(C(=O)N[C@@H](CCO)c2ccc(Cl)cc2)CCN(c2ncnc3[nH]ccc23)CC1 [Capivasertib] + CC(=O)c1c(C)c2cnc(Nc3ccc(N4CCNCC4)cn3)nc2n(C2CCCC2)c1=O [Palbociclib] (first compound max 10 µM, 7x7, partner max 10 µM) | 0.0311 | -0.0295 | 0.0341 | -0.0394 | -0.0092 | -0.0469 | 0.0091 | 0.0029 | 0.0168 | 0.0007 | 0.052 | 0.0176 | 0.0419 | -0.0459 | -0.0243 |  | 0.0645 | -0.0531 | -0.0195 | -0.0137
COc1nnc2ccc(N3CCC(c4ccc(OCCN5CCN(C)C(=O)[C@H]5C)cc4)CC3)nn12 [AZD5153] + C[C@@H]1COCCN1C2=NC(=NC(=C2)C3(CC3)[S@](=N)(=O)C)C4=C5C=CNC5=NC=C4 [AZD6738] (first compound max 1 µM, 7x7, partner max 10 µM) | -0.0197 | 0.0502 | 0.0254 | 0.0524 | 0.0527 | -0.0276 | -0.0011 | 0.0306 | 0.0026 | 0.0544 | -0.0091 | 0.0526 | -0.0628 | -0.0072 | -0.0623 |  | 0.0656 | -0.0066 | -0.0503 | 0.0624
COc1nnc2ccc(N3CCC(c4ccc(OCCN5CCN(C)C(=O)[C@H]5C)cc4)CC3)nn12 [AZD5153] + CCN(CCO)CCCOc1ccc2c(Nc3cc(CC(=O)Nc4cccc(F)c4)[nH]n3)ncnc2c1 [AZD2811] (first compound max 1 µM, 7x7, partner max 1 µM) | -0.027 | -0.0409 | -0.0316 | -0.068 | -0.008 | -0.0814 | -0.0622 | -0.0297 | 0.0047 | 0.0064 | -0.0311 | -0.0112 | -0.083 | -0.0244 | -0.0477 |  | 0.0356 | -0.0663 | -0.0501 | -0.0003
